In patent US9034907B2, “Inhibitors of glutaminyl cyclase” (Probiodrug AG, priority 2007, dated 2015):

Experiments:
glutaminyl cyclase (QC) = glutaminyl cyclase (QC) (Homo sapiens (Human), UniProt Q16769); assay: QC inhibitor assay (fluorometric / spectrophotometric QC activity assay with inhibitor added); details: 30° C.
Chain of glutaminyl cyclase (QC) (Q16769 29-361): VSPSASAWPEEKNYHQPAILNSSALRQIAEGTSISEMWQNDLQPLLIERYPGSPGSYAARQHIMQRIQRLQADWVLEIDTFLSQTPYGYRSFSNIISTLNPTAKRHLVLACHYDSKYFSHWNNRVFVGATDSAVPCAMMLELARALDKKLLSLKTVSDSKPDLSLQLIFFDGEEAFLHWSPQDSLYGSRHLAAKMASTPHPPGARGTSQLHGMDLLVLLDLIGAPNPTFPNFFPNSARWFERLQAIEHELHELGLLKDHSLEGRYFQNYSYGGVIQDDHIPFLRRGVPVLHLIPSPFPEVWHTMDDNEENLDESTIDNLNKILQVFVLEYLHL
Description: All measurements were performed with a BioAssay Reader HTS-7000Plus for microplates (Perkin Elmer) at 30° C. QC activity was evaluated fluorometrically using H-Gln-βNA. The samples consisted of 0.2 mM fluorogenic substrate, 0.25 U pyroglutamyl aminopeptidase (Unizyme, Hørsholm, Denmark) in 0.2 M Tris/HCl, pH 8.0 containing 20 mM EDTA and an appropriately diluted aliquot of QC in a final volume of 250 μl. Excitation/emission wavelengths were 320/410 nm. The assay reactions were initiated by addition of glutaminyl cyclase. QC activity was determined from a standard curve of β-naphthylamine under assay conditions. One unit is defined as the amount of QC catalyzing the formation of 1 μmol pGlu-βNA from H-Gln-βNA per minute under the described conditions.
In a second fluorometric assay, QC was activity determined using H-Gln-AMC as substrate. Reactions were carried out at 30° C. utilizing the NOVOStar reader for microplates (BMG labtechnologies). […] The kinetic data were evaluated using GraFit software.
Samples consisted of the respective QC substrate, 0.3 mM NADH, 14 mM α-Ketoglutaric acid and 30 U/ml glutamate dehydrogenase in a final volume of 250 μl. […] All samples were measured at 30° C., using either the [sequence]luor Plus or the Sunrise (both from TECAN) reader for microplates. Kinetic data was evaluated using GraFit software. […]

SMILES	melting point [°C]	other results
O=c1c2ccccc2[nH]c(=S)n1CCCn1ccnc1 [Example 28, 2,3-dihydro-3-(3-(1H-imidazol-1-yl)propyl)-2-thioxoquinazolin-4(1H)-one]	–	Ki (glutaminyl cyclase (QC); competitive inhibition fit of progress curves): 300 nM
O=c1c2c3c(sc2[nH]c(=S)n1CCCn1ccnc1)CCCC3	118 to 120	–
Cc1csc2c(=O)n(CCCn3ccnc3)c(=S)[nH]c12	225 to 227	–
O=c1c2ccccc2[nH]c(=S)n1-c1ccc2[nH]cnc2c1 [Example 43, 3-(1H-benzo[d]imidazol-5-yl)-2,3-dihydro-2-thioxo-quinazolin-4(1H)-one]	–	IC50 (glutaminyl cyclase (QC); QC inhibition): 121 µM
